Measured values as given in paper PMC3971658 (The Journal of General Physiology, 2014).

Tests used:
[1] = tested on: human Cav2.3c (α1E-c) channel alone; assay type: cell-based; conditions: 50 µM
[2] = tested on: Human Cav2.3d; assay type: cell-based; conditions: 50 µM
[3] = tested on: Human Cav2.3c; assay type: cell-based; conditions: 50 µM
[4] = tested on: Human Cav2.1; assay type: cell-based; conditions: 50 µM
[5] = tested on: Rabbit Cav2.1; assay type: cell-based; conditions: 50 µM
[6] = tested on: R-type current, thalamocortical neurons; conditions: cited from earlier work
[7] = tested on: human Cav2.1 (α1A-2) channel alone; assay type: cell-based; conditions: 50 µM
[8] = tested on: R-type current, rat DRG neurons; assay type: cell-based
[9] = tested on: c-Src / human Cav2.1 channel and GABABR; assay type: cell-based
[10] = tested on: human Cav2.3c channel and GABABR

NCC(CC(=O)O)c1ccc(Cl)cc1 (stereo not shown) [Baclofen, baclofen]
IBa inhibition [1]: 0 (6) %
IBa inhibition [2]: 33.1 ± 1.8 (8) %
IBa inhibition [3]: 44.0 ± 3.0 (10) %
IBa inhibition [4]: 44.4 ± 1.9 (9) %
IBa inhibition [5]: ^#50.0 ± 5.0 (8) %
R-type current modulation [6]: R-type current modulation by baclofen has been demonstrated
IBa inhibition [7]: 0 (5) %
R-type current inhibition [8]: R-type current inhibition by baclofen
baclofen inhibition of IBa with wild-type c-Src overexpression or pp60c-Src peptide [9]: did not affect baclofen inhibition of IBa
V0.5,act [10]: −3.44 ± 0.67 mV
